Measurements from article PMC11253855, “Phosphonodiamidate prodrugs of phosphoantigens (ProPAgens) exhibit potent Vγ9/Vδ2 T cell activation and eradication of cancer cells” (RSC Medicinal Chemistry, 2024).

How the values were obtained:
[1] = Human serum stability assay (31P NMR); type: in vitro ADME; conditions: 37 °C, read-out: human serum stability t1/2
Experimental: Upon synthesis, we first studied whether these phosphonodiamidate ProPAgens are stable in human serum. As a representative of this class of phosphonodiamidate ProPAgens in the serum stability studies, we chose ProPAgen 9b, which has an iPr ester like the two FDA-approved phosphoramidate prodrugs, sofosbuvir and tenofovir alafenmide.[24,33] Thus, ProPAgen 9b was incubated with human serum at 37 °C for […] and monitored the sample by ^31P NMR, as we reported previously.[20] […] Following the incubation of the phosphonodiamidate ProPAgen 9b with human serum and monitoring of the sample by ^31P-NMR, these original 9b^31P-NMR peaks remained present through the 7.5 h of the study, and no new ^31P-NMR peaks were observed. […] This stability profile is in line with the aryloxy diester phosphoramidate prodrugs of these monophosphonates that we reported[20] before and that of the analogous symmetrical nucleoside phosphorodiamidate prodrugs.[26]
Fig. 2 Stability of the HMBP phosphonodiamidate ProPAgen 9b in human serum at 37 °C for 7.5 h as monitored by ^31P NMR. […]
This experiment was carried out as previously reported.[20,26,40] […] After recording the first ^31P NMR data, 0.3 mL human serum (Merck Life Sciences) was added and monitored by NMR. […] Recorded data were processed and analyzed with Bruker Topspin 2.1 software.

[2] = biological target: T1, carboxypeptidase Y (Saccharomyces cerevisiae, UniProt P00729); assay: Carboxypeptidase Y assay (31P NMR); type: in vitro ADME; conditions: recombinant carboxypeptidase Y, 37 °C, 6.5 h
T1 sequence (P00729 112-532): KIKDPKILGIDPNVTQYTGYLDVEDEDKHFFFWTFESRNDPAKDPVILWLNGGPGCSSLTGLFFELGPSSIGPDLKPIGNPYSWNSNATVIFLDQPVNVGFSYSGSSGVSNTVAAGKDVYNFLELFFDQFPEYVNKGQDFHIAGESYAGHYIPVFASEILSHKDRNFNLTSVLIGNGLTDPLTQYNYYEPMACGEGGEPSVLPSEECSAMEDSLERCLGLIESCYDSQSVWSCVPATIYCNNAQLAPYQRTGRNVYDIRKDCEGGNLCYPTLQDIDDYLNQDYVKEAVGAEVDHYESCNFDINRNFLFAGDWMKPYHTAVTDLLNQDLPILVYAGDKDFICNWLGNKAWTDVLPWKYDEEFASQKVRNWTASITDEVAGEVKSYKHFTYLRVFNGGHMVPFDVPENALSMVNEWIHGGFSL
Experimental: Fig. 3 Metabolism of diamidate ProPAgens.
With this postulated mechanism of phosphonodiamidate prodrugs in mind, we subsequently incubated the phosphonodiamidate ProPAgen 9b with recombinant carboxypeptidase Y at 37 °C and monitored the reaction by ^31P-NMR for 6.5 h. […] Upon addition of carboxypeptidase Y and within 0.5 h, a new ^31P NMR triplet (δP = 6.82, 7.27 and 7.72 ppm) appeared and became prominent as the assay proceeded while the original ^31P NMR peaks (δP = 14.16, 14.67 and 15.14 ppm) corresponding to ProPAgen 9b reduced over time.
This experiment was carried out as previously reported.[20,26,40] 5.0 mg of the phosphonodiamidate ProPAgen 9b was dissolved in 0.2 mL of acetone, and 0.4 mL of Trizma buffer (pH 7.4) was added followed by 0.5 mg carboxypeptidase Y in 0.2 ml Trizma buffer (pH 7.4). The experiment was run on NMR phosphorus mode and scanned every half an hour for 6.5 h. The incubation temperature was 37 °C. Recorded data were processed and analyzed with Bruker Topspin 2.1 software.

[3] = system: Vγ9/Vδ2 T cells; assay: In vitro Vγ9/Vδ2 T cell activation assay (PBMCs, CD69+ CD25+ by flow cytometry); type: cell-based, human; conditions: Homo sapiens, T-cell, read-out: EC50 (activation of Vγ9/Vδ2 T cells)
Experimental: Subsequently, we studied the ability of these HMBP phosphonodiamidate ProPAgens to activate Vγ9/Vδ2 T cells and elicit their lysis of cancer cells in vitro. For this, peripheral blood mononuclear cells (PBMCs) derived from healthy donors and containing Vγ9/Vδ2 T cells were incubated with increasing concentrations of zoledronate or phosphonodiamidate HMBP ProPAgens 9a–d and 14a–d (up to 100 μM) (Fig. 4). Peripheral blood γδ T cells lack appreciable levels of surface CD69 or CD25 under steady-state conditions, but TCR stimulation upregulates both T cell activation markers.[6] Thus, PAg-responsive Vγ9/Vδ2 T cells were then assessed for the upregulation of CD69 and CD25.
Fig. 4 In vitro phosphonodiamidate ProPAgen-mediated activation of Vγ9/Vδ2 T cells, following overnight incubation with zoledronate, and HMBP ProPAgens 9a–d and 14a–d. Levels of activation are represented as % of Vγ9/Vδ2 T cells that are CD69+ CD25+. Data is shown as mean ± SE (n = 4). (A) Activation of Vγ9/Vδ2 stimulated by phosphonodiamidate ProPAgens 9a–d. (B) Activation of Vγ9/Vδ2 stimulated by ProPAgens 14a–d. (C) Activation of Vγ9Vδ2 stimulated by zoledronate (Zol). (D) EC50 values were calculated using GraphPad Prism v9 based on the results of the activation assay.
As for the activation of Vγ9/Vδ2 T cells by the phosphonodiamidate ProPAgens (9a–d and 14a–d), these were initially tested using a concentration range from […] to 100 μM (Fig. 4A and B).
Healthy donor peripheral blood mononuclear cells (PBMCs) were harvested as previously described.[20] To assess the activation of Vγ9/Vδ2 T cells, PBMCs were seeded into U-bottom tissue culture-treated 96-well plates at a cell density of 500 000 cells per well. The cells were incubated with medium-only (control), in the presence of zoledronate at 10 pM to 100 μM, and with HMBP ProPAgens initially at 10 pM to 100 μM, and then at 1 aM to 100 μM for compounds 9d and 14d in a separate experiment. The cells were incubated at 37 °C/5% CO2 overnight, and stained by flow cytometry for the following markers: viability (Zombie Aqua 1 : 400), CD3 (BV421 1 : 100), CD8 (BV650 1 : 200), Vγ9 (PEcy5 1 : 400), Vδ2 (APC 1 : 200), CD69 (PE 1 : 25), CD25 (FITC 1 : 100). The samples were acquired via LSRFortessa X20 (BD Biosciences), and the data obtained were analyzed using FlowJo v10 and GraphPad Prism v9 software.

[4] = system: cancer patients; set-up: method as in PMID 18301889, PMID 20563721; conditions: in combination with a low dose of IL-2; cited from earlier work

| SMILES | half-life at 10 mg/mL [1] | carboxypeptidase Y-mediated breakdown [2] | EC50 [3] | safety and tolerability in cancer patients [4] |
| --- | --- | --- | --- | --- |
| C/C(=C\CC(F)(F)P(=O)(N[C@@H](C)C(=O)OC(C)C)N[C@@H](C)C(=O)OC(C)C)CO [9b, Diisopropyl 2,2′-((((E)-1,1-difluoro-5-hydroxy-4-methylpent-3-en-1-yl)phosphoryl)bis(azanediyl))(2S,2′S)-dipropionate] | > 7.5 h | not fully metabolised | 167 nM |  |
| CC(O)(CBr)CCOP(=O)(O)OP(=O)(O)O (stereo not shown) [BrHPP, bromohydrin pyrophosphate] |  |  |  | safe and well tolerated |
